We go through one compound from US10975082B2, “Inhibitor of FLT3 kinase and use thereof” (PRECEDO PHARMACEUTICALS CO., LTD, priority 2016, dated 2021).

In this assay the test system is MOLM-13, MOLM-14 and MV-4-11 cell lines. Kind of assay: Cell cycle distribution by flow cytometry (PI). It counts as cell-based, human. The settings on record: MOLM-13, MOLM-14 and MV-4-11, 12 or 24 hours; Compound 1 0.01-0.1 μM, AC220 0.1 μM. In general terms: Flow cytometry measures light scatter and fluorescence of single cells or particles in a stream.

SMILES strings stand for the structures.

Regarding `CC(C)(C)c1cc(NC(=O)Nc2ccc(-c3cn4c(n3)sc3cc(OCCN5CCOCC5)ccc34)cc2)no1` [AC220, reference compound], the cell cycle distribution result is “similar”.
